Data published in paper PMC7162861, “Synthesis, cytotoxicity, pharmacokinetic profile, binding with DNA and BSA of new imidazo[1,2-a]pyrazine-benzo[d]imidazol-5-yl hybrids” (Scientific Reports, 2020).

Legend:
CCRF-CEM = test: NCI cytotoxicity screen, Leukemia panel; assay type: cell-based; details: Homo sapiens, single dose 10 µM, negative = lethal, read-out: Percent growth inhibition
Experimental: (§1) Cytotoxicity was performed at National Cancer Institute (NCI), Bethesda, USA as per their protocols.

RPMI-8226 = test: NCI cytotoxicity screen, Leukemia panel; assay type: cell-based; details: Homo sapiens; RPMI-8226; single dose 10 µM; negative = lethal; read-out: Percent growth inhibition
Experimental: as §1

K-562 = test: NCI cytotoxicity screen, Leukemia panel; assay type: cell-based; details: Homo sapiens, K562; K-562; single dose 10 µM; negative = lethal; read-out: Percent growth inhibition
Experimental: as §1

SR = test: NCI cytotoxicity screen, Leukemia panel; assay type: cell-based; details: Homo sapiens, single dose 10 µM, negative = lethal, read-out: Percent growth inhibition
Experimental: as §1

MOLT-4 = test: NCI cytotoxicity screen, Leukemia panel; assay type: cell-based; details: Homo sapiens, MOLT-4, MOLT-4; single dose 10 µM; negative = lethal; read-out: Percent growth inhibition
Experimental: as §1

HL-60(TB) = test: NCI cytotoxicity screen, Leukemia panel; assay type: cell-based; details: Homo sapiens, HL-60, HL-60(TB); single dose 10 µM; negative = lethal; read-out: Percent growth inhibition
Experimental: as §1

SW-620 = test: NCI cytotoxicity screen, Colon Cancer panel; assay type: cell-based, human; details: Homo sapiens, single dose 10 µM, negative = lethal, read-out: Percent growth inhibition
Experimental: as §1

KM12 = test: NCI cytotoxicity screen, Colon Cancer panel; assay type: cell-based, human; details: Homo sapiens, single dose 10 µM, negative = lethal, read-out: Percent growth inhibition
Experimental: as §1

HCC-2998 = test: NCI cytotoxicity screen, Colon Cancer panel; assay type: cell-based, human; details: Homo sapiens; HCC-2998; single dose 10 µM; negative = lethal; read-out: Percent growth inhibition
Experimental: as §1

786-0 = test: NCI cytotoxicity screen, Renal Cancer panel; assay type: cell-based, human; details: Homo sapiens, single dose 10 µM, negative = lethal, read-out: Percent growth inhibition
Experimental: as §1

TK-10 = test: NCI cytotoxicity screen, Renal Cancer panel; assay type: cell-based, human; details: Homo sapiens, single dose 10 µM, negative = lethal, read-out: Percent growth inhibition
Experimental: as §1

U251 = test: NCI cytotoxicity screen, CNS Cancer panel; assay type: cell-based; details: Homo sapiens, U-251; U251; single dose 10 µM; negative = lethal; read-out: Percent growth inhibition
Experimental: as §1

SNB-19 = test: NCI cytotoxicity screen, CNS Cancer panel; assay type: cell-based; details: Homo sapiens; SNB-19; single dose 10 µM; negative = lethal; read-out: Percent growth inhibition
Experimental: as §1

SNB-75 = test: NCI cytotoxicity screen, CNS Cancer panel; assay type: cell-based; details: Homo sapiens, single dose 10 µM, negative = lethal, read-out: Percent growth inhibition
Experimental: as §1

SF-539 = test: NCI cytotoxicity screen, CNS Cancer panel; assay type: cell-based; details: Homo sapiens, single dose 10 µM, negative = lethal, read-out: Percent growth inhibition
Experimental: as §1

SF-268 = test: NCI cytotoxicity screen, CNS Cancer panel; assay type: cell-based; details: Homo sapiens, single dose 10 µM, negative = lethal, read-out: Percent growth inhibition
Experimental: as §1

SF-295 = test: NCI cytotoxicity screen, CNS Cancer panel; assay type: cell-based; details: Homo sapiens, single dose 10 µM, negative = lethal, read-out: Percent growth inhibition
Experimental: as §1

c1ccc(-c2cn3ccnc3c(-c3ccc4c(c3)ncn4C3CCCCC3)n2)cc1 [Compound 9, 8-(1-cyclohexyl-1H-benzo[d]imidazol-5-yl)-6-phenylimidazo[1,2-a]pyrazine]
inhibition at 10 µM (CCRF-CEM): 11.7%
inhibition at 10 µM (RPMI-8226): 18.3%
inhibition at 10 µM (K-562): 31.1%
inhibition at 10 µM (SR): 44.6%
inhibition at 10 µM (MOLT-4): 39.7%
inhibition at 10 µM (HL-60(TB)): 19.4%
inhibition at 10 µM (SW-620): < 1%
inhibition at 10 µM (KM12): 5.7%
inhibition at 10 µM (HCC-2998): < 1%
inhibition at 10 µM (786-0): 8.24%
inhibition at 10 µM (TK-10): < 1%
melting point: 195 to 198 °C
inhibition at 10 µM (U251): 4.44%
inhibition at 10 µM (SNB-19): 1.72%
inhibition at 10 µM (SNB-75): 5.65%
inhibition at 10 µM (SF-539): 2.17%
inhibition at 10 µM (SF-268): 1.33%
inhibition at 10 µM (SF-295): < 1%

COc1ccc(-c2cn3ccnc3c(-c3ccc4c(c3)ncn4C3CCCCC3)n2)cc1 [Compound 10, 8-(1-cyclohexyl-1H-benzo[d]imidazol-5-yl)-6-(4-methoxyphenyl)imidazo[1,2-a]pyrazine]
inhibition at 10 µM (CCRF-CEM): 1.19%
inhibition at 10 µM (RPMI-8226): 14.7%
inhibition at 10 µM (K-562): 29.2%
inhibition at 10 µM (SR): 29.7%
inhibition at 10 µM (MOLT-4): 34.2%
inhibition at 10 µM (HL-60(TB)): 23.3%
inhibition at 10 µM (SW-620): < 1%
inhibition at 10 µM (KM12): 2.27%
inhibition at 10 µM (HCC-2998): < 1%
inhibition at 10 µM (786-0): 12.7%
inhibition at 10 µM (TK-10): < 1%
melting point: 196 to 199 °C
inhibition at 10 µM (U251): 3.4%
inhibition at 10 µM (SNB-19): 4.26%
inhibition at 10 µM (SNB-75): 15.9%
inhibition at 10 µM (SF-539): 9.71%
inhibition at 10 µM (SF-268): 3.96%
inhibition at 10 µM (SF-295): 12.5%

c1ccc2c(-c3cn4ccnc4c(-c4ccc5c(c4)ncn5C4CCCCC4)n3)cccc2c1 [Compound 12, 8-(1-cyclohexyl-1H-benzo[d]imidazol-5-yl)-6-(naphthalen-1-yl)imidazo[1,2-a]pyrazine]
inhibition at 10 µM (CCRF-CEM): 27.2%
inhibition at 10 µM (RPMI-8226): 38.2%
inhibition at 10 µM (K-562): 38%
inhibition at 10 µM (SR): 10.9%
inhibition at 10 µM (MOLT-4): ~50%
inhibition at 10 µM (HL-60(TB)): ~50%
inhibition at 10 µM (SW-620): 1.43%
inhibition at 10 µM (KM12): 8.69%
inhibition at 10 µM (HCC-2998): < 1%
inhibition at 10 µM (786-0): 13.3%
inhibition at 10 µM (TK-10): 5.82%
melting point: 199 to 202 °C
inhibition at 10 µM (U251): 27.9%
inhibition at 10 µM (SNB-19): 16.7%
inhibition at 10 µM (SNB-75): 9.15%
inhibition at 10 µM (SF-539): 7.72%
inhibition at 10 µM (SF-268): 11.8%
inhibition at 10 µM (SF-295): 7.88%

Fc1ccc(-c2cn3ccnc3c(-c3ccc4c(c3)ncn4C3CCCCC3)n2)cc1 [Compound 13, 8-(1-cyclohexyl-1H-benzo[d]imidazol-5-yl)-6-(4-fluorophenyl)imidazo[1,2-a]pyrazine]
inhibition at 10 µM (CCRF-CEM): < 1%
inhibition at 10 µM (RPMI-8226): 6.16%
inhibition at 10 µM (K-562): 13.2%
inhibition at 10 µM (SR): 20.8%
inhibition at 10 µM (MOLT-4): 11.4%
inhibition at 10 µM (HL-60(TB)): 5.28%
inhibition at 10 µM (SW-620): < 1%
inhibition at 10 µM (KM12): 7.3%
inhibition at 10 µM (HCC-2998): < 1%
inhibition at 10 µM (786-0): 3.12%
inhibition at 10 µM (TK-10): < 1%
melting point: 187 to 189 °C
inhibition at 10 µM (U251): 3.57%
inhibition at 10 µM (SNB-19): < 1%
inhibition at 10 µM (SNB-75): < 1%
inhibition at 10 µM (SF-539): < 1%
inhibition at 10 µM (SF-268): 5.13%
inhibition at 10 µM (SF-295): < 1%

c1cn2cc(-c3ccsc3)nc(-c3ccc4c(c3)ncn4C3CCCCC3)c2n1 [Compound 14, 8-(1-cyclohexyl-1H-benzo[d]imidazol-5-yl)-6-(thiophen-3-yl)imidazo[1,2-a]pyrazine]
inhibition at 10 µM (CCRF-CEM): 1.1%
inhibition at 10 µM (RPMI-8226): 20.8%
inhibition at 10 µM (K-562): 9.6%
inhibition at 10 µM (SR): 23.6%
inhibition at 10 µM (MOLT-4): 14.3%
inhibition at 10 µM (HL-60(TB)): 2.65%
inhibition at 10 µM (SW-620): < 1%
inhibition at 10 µM (KM12): 11.7%
inhibition at 10 µM (HCC-2998): < 1%
inhibition at 10 µM (786-0): < 1%
inhibition at 10 µM (TK-10): < 1%
melting point: 185 to 188 °C
inhibition at 10 µM (U251): 30.2%
inhibition at 10 µM (SNB-19): 3.96%
inhibition at 10 µM (SNB-75): < 1%
inhibition at 10 µM (SF-539): 2.82%
inhibition at 10 µM (SF-268): 5.01%
inhibition at 10 µM (SF-295): < 1%

c1csc(-c2cn3ccnc3c(-c3ccc4c(c3)ncn4C3CCCCC3)n2)c1 [Compound 22, 8-(1-cyclohexyl-1H-benzo[d]imidazol-5-yl)-6-(thiophen-2-yl)imidazo[1,2-a]pyrazine]
inhibition at 10 µM (CCRF-CEM): < 1%
inhibition at 10 µM (RPMI-8226): < 1%
inhibition at 10 µM (K-562): < 1%
inhibition at 10 µM (SR): 15%
inhibition at 10 µM (MOLT-4): 12.4%
inhibition at 10 µM (HL-60(TB)): 0.87%
inhibition at 10 µM (SW-620): < 1%
inhibition at 10 µM (KM12): 6.84%
inhibition at 10 µM (HCC-2998): < 1%
inhibition at 10 µM (786-0): 0.59%
inhibition at 10 µM (TK-10): < 1%
melting point: 187 to 190 °C
inhibition at 10 µM (U251): < 1%
inhibition at 10 µM (SNB-19): < 1%
inhibition at 10 µM (SNB-75): < 1%
inhibition at 10 µM (SF-539): < 1%
inhibition at 10 µM (SF-268): 2.5%
inhibition at 10 µM (SF-295): < 1%

c1cn2cc(-c3ccc4c(c3)ncn4C3CCCCC3)nc(-c3ccc4c(c3)ncn4C3CCCCC3)c2n1 [Compound 30, 6,8-bis(1-cyclohexyl-1H-benzo[d]imidazol-5-yl)imidazo[1,2-a]pyrazine]
inhibition at 10 µM (CCRF-CEM): 35.1%
inhibition at 10 µM (RPMI-8226): 52.2%
inhibition at 10 µM (K-562): 47.2%
inhibition at 10 µM (SR): 17.1%
inhibition at 10 µM (MOLT-4): 43.6%
inhibition at 10 µM (HL-60(TB)): 32.9%
inhibition at 10 µM (SW-620): < 1%
inhibition at 10 µM (KM12): 56.2%
inhibition at 10 µM (HCC-2998): < 1%
inhibition at 10 µM (786-0): 13.9%
inhibition at 10 µM (TK-10): < 1%
melting point: 205 to 209 °C
inhibition at 10 µM (U251): 29.7%
inhibition at 10 µM (SNB-19): 5.02%
inhibition at 10 µM (SNB-75): 6.25%
inhibition at 10 µM (SF-539): 25.4%
inhibition at 10 µM (SF-268): 4.85%
inhibition at 10 µM (SF-295): 10.4%
